Here are results for one compound from PMC11457795 (Cell chemical biology, 2024).

The test has as its target PfMAGL (Plasmodium falciparum, UniProt Q8IJ22). The test is described as follows: fluorogenic 4-methylumbelliferyl caprylate hydrolysis assay, […] min preincubation. Type of test: biochemical.

A word on the IC50: it is the point on the concentration scale where inhibition reaches its midpoint. A higher IC50 goes with weaker potency in that assay.

Compound `C#CCCCCP(=O)(OCC)Oc1ccc(S(=O)(=O)F)cc1` (racemic) [compound 2, ethyl (4-(fluorosulfonyl)phenyl) hex-5-yn-1-ylphosphonate] gave an IC50 of 20 nM.
